From patent US20090036420A1, “BENZAMIDE DERIVATIVES AND THEIR USE FOR TREATING CNS DISORDERS” (priority 2007, published 2009) come the findings set out here.

Where two headings read alike, the source gives them in different places.

The target in the test is T1, TAAR1 (Mus musculus, UniProt Q923Y8).
T1 construct: expressed in transfected cells; host or cells: HEK293 cells (ATCC #CRL-1573), stably transfected with pIRESneo2 expression plasmid; membrane preparation
Description: Radioligand binding assay on membranes of HEK293 cells stably expressing TAAR1. The following applies: radioligand [3H]-rac-2-(1,2,3,4-tetrahydro-1-naphthyl)-2-imidazoline 60 nM, 4° C., 30 min. The protocol:
The Expand High Fidelity PCR System (Roche Diagnostics) was used with 1.5 mM Mg^2+ and purified PCR products were cloned into pCR2.1-TOPO cloning vector (Invitrogen) following the instructions of the manufacturer. PCR products were subcloned into the pIRESneo2 vector (BD Clontech, Palo Alto, Calif.), and expression vectors were sequence verified before introduction in cell lines.
For the generation of stably transfected cell lines HEK293 cells were transfected with the pIRESneo2 expression plasmids containing the TAAR coding sequences (described above) with Lipofectamine 2000 (Invitrogen) according to the instructions of the manufacturer, and 24 hrs post transfection the culture medium was supplemented with 1 mg/ml G418 (Sigma, Buchs, Switzerland). After a culture period of about 10 d clones were isolated, expanded and tested for responsiveness to trace amines (all compounds purchased from Sigma) with the cAMP Biotrak Enzyme immunoassay (EIA) System (Amersham) following the non-acetylation EIA procedure provided by the manufacturer.
Cells at confluence were rinsed with ice-cold phosphate buffered saline without Ca^2+ and Mg^2+ containing 10 mM EDTA and pelleted by centrifugation at 1000 rpm for 5 min at 4° C. The pellet was then washed twice with ice-cold phosphate buffered saline and cell pellet was frozen immediately by immersion in liquid nitrogen and stored until use at −80° C. Cell pellet was then suspended in 20 ml HEPES-NaOH (20 mM), pH 7.4 containing 10 mM EDTA, and homogenized with a Polytron (PT 3000, Kinematica) at 10,000 rpm for 10 s. The homogenate was centrifuged at 48,000×g for 30 min at 4° C. and the pellet resuspended in 20 ml HEPES-NaOH (20 mM), pH 7.4 containing 0.1 mM EDTA (buffer A), and homogenized with a Polytron at 10,000 rpm for 10 s. The homogenate was then centrifuged at 48,000×g for 30 min at 4° C. and the pellet resuspended in 20 ml buffer A, and homogenized with a Polytron at 10,000 rpm for 10 s. Protein concentration was determined by the method of Pierce (Rockford, Ill.). […] Non-specific binding was defined as the amount of [^3H]-rac-2-(1,2,3,4-tetrahydro-1-naphthyl)-2-imidazoline bound in the presence of the appropriate unlabelled ligand (10 μM). Competing ligands were tested in a wide range of concentrations (10 pM-30 μM). […] Each experiment was performed in duplicate. All incubations were terminated by rapid filtration through UniFilter-96 plates (Packard Instrument Company) and glass filter GF/C, pre-soaked for at least 2 h in polyethylenimine 0.3%, and using a Filtermate 96 Cell Harvester (Packard Instrument Company). The tubes and filters were then washed 3 times with 1 ml aliquots of cold buffer B. Filters were not dried and soaked in Ultima gold (45 μl/well, Packard Instrument Company) and bound radioactivity was counted by a TopCount Microplate Scintillation Counter (Packard Instrument Company).

Setting [1] is: read-out: Ki value (μM) in mouse.

T1 sequence (Q923Y8 whole entry): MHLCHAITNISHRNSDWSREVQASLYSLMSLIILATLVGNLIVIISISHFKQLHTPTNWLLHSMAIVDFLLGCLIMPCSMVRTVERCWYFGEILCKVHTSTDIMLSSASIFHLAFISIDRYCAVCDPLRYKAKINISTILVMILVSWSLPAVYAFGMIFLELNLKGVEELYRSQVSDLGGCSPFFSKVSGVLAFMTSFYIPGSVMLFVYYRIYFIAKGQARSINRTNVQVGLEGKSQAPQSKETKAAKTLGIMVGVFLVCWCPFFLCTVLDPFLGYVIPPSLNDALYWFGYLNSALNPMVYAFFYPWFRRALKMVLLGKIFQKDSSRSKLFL

On to `CCNc1ncc(C(=O)Nc2cccc(Cl)c2)cc1Cl` [Example 156, 5-Chloro-N-(3-chloro-phenyl)-6-ethylamino-nicotinamide], for which, under setting [1], the inhibition constant Ki amounted to 0.039 µM. `CCCNc1ncc(C(=O)Nc2cccc(Cl)c2)cc1Cl` [Example 157, 5-Chloro-N-(3-chloro-phenyl)-6-propylamino-nicotinamide] yielded a Ki (Ki value (μM) in mouse) of 0.011 µM. For `CCCCNc1ncc(C(=O)Nc2cccc(Cl)c2)cc1Cl` [Example 158, 6-Butylamino-5-chloro-N-(3-chloro-phenyl)-nicotinamide], the Ki (Ki value (μM) in mouse) came to 0.008 µM.

Where the note is “Ki value (μM) in mouse”, `O=C(Nc1cccc(Cl)c1)c1cnc(N2CCC2)c(Cl)c1` [Example 162, 6-Azetidin-1-yl-5-chloro-N-(3-chloro-phenyl)-nicotinamide] came in with an inhibitory constant (Ki) of 0.042 µM. For `O=C(Nc1cccc(Cl)c1)c1cnc(N2CCCCC2)c(Cl)c1` [Example 163, 3′-Chloro-3,4,5,6-tetrahydro-2H-[1,2′]bipyridinyl-5′-carboxylicacid (3-chloro-phenyl)-amide], the Ki under setting [1] stood at 0.038 µM.

On to `CN1CCN(c2ncc(C(=O)Nc3cccc(Cl)c3)cc2Cl)CC1` [Example 164, 5-Chloro-N-(3-chloro-phenyl)-6-(4-methyl-piperazin-1-yl)-nicotinamide], for which the Ki under setting [1] worked out at 0.001 µM. `COc1cccc(NC(=O)c2cccc(S(=O)(=O)N3CCCCCC3)c2)c1` [Example 170, 3-(Azepane-1-sulfonyl)-N-(3-methoxy-phenyl)-benzamide] returned an inhibitory constant (Ki) (Ki value (μM) in mouse) of 0.024 µM. For `Cc1cnc(C)n1Cc1cccc(NC(=O)c2ccc(Cl)c(Cl)c2)c1` [Example 177, 3,4-Dichloro-N-[3-(2,5-dimethyl-imidazol-1-ylmethyl)-phenyl]-benzamide], under setting [1], the Ki was determined as 0.049 µM.

On to `COc1cccc(NC(=O)c2cnc(Cl)c(C(F)(F)F)c2)c1` [Example 178, 6-Chloro-N-(3-methoxy-phenyl)-5-trifluoromethyl-nicotinamide], for which, under setting [1], the inhibition constant (Ki) turned out to be 0.008 µM. Turning to `COc1cccc(NC(=O)c2cnc(N3CCCC3)c(C(F)(F)F)c2)c1` [Example 179, N-(3-Methoxy-phenyl)-6-pyrrolidin-1-yl-5-trifluoromethyl-nicotinamide], the Ki under setting [1] is 0.002 µM.

`CCc1cccc(NC(=O)c2ccc(N3CCCC3)c(C(F)(F)F)c2)c1` [Example 180, N-(3-Ethyl-phenyl)-4-pyrrolidin-1-yl-3-trifluoromethyl-benzamide]: the Ki under setting [1] was 0.021 µM. For the compound `CCOc1cccc(NC(=O)c2ccc(N3CCCC3)c(C(F)(F)F)c2)c1` [Example 181, N-(3-Ethoxy-phenyl)-4-pyrrolidin-1-yl-3-trifluoro-methyl-benzamide], under setting [1], the Ki stood at 0.001 µM.

In turn, `CC(C)c1cccc(NC(=O)c2ccc(N3CCCC3)c(C(F)(F)F)c2)c1` [Example 182, N-(3-Isopropyl-phenyl)-4-pyrrolidin-1-yl-3-trifluoro-methyl-benzamide] had a Ki (Ki value (μM) in mouse) of 0.065 µM. As to `CC(C)Oc1cccc(NC(=O)c2ccc(N3CCCC3)c(C(F)(F)F)c2)c1` [Example 183, N-(3-Isopropoxy-phenyl)-4-pyrrolidin-1-yl-3-trifluoro-methyl-benzamide], under setting [1], the Ki stood at 0.007 µM. The same measure, in the same setting: the figure for `CC(=O)c1cccc(NC(=O)c2ccc(N3CCCC3)c(C(F)(F)F)c2)c1` [Example 184, N-(3-Acetyl-phenyl)-4-pyrrolidin-1-yl-3-tri-fluoromethyl-benzamide] is 0.026 µM; for `O=C(Nc1cccc(F)c1)c1ccc(N2CCCC2)c(C(F)(F)F)c1` [Example 185, N-(3-Fluoro-phenyl)-4-pyrrolidin-1-yl-3-trifluoro-methyl-benzamide] it is 0.009 µM.

On to `O=C(Nc1cccc(Cl)c1)c1ccc(N2CCCC2)c(C(F)(F)F)c1` [Example 186, N-(3-Chloro-phenyl)-4-pyrrolidin-1-yl-3-trifluoro-methyl-benzamide], for which affinity (Ki value (μM) in mouse) was put at a Ki of 0.02 µM.

In the case of `O=C(Nc1cccc(Br)c1)c1ccc(N2CCCC2)c(C(F)(F)F)c1` [Example 187, N-(3-Bromo-phenyl)-4-pyrrolidin-1-yl-3-trifluoro-methyl-benzamide], the Ki under setting [1] turned out to be 0.046 µM. Take `Cc1cccc(NC(=O)c2ccc(N3CCCC3)c(C(F)(F)F)c2)c1` [Example 189, 4-Pyrrolidin-1-yl-N-m-tolyl-3-trifluoro-methyl-benzamide]: under setting [1], the Ki was 0.016 µM.

On to `O=C(Nc1cccc(OC(F)F)c1)c1ccc(N2CCCC2)c(C(F)(F)F)c1` [Example 190, N-(3-Difluoro-methoxy-phenyl)-4-pyrrolidin-1-yl-3-trifluoro-methyl-benzamide], for which, under setting [1], the Ki is 0.012 µM. For `O=C(Nc1cccc(OC(F)(F)C(F)F)c1)c1ccc(N2CCCC2)c(C(F)(F)F)c1` [Example 192, 4-Pyrrolidin-1-yl-N-[3-(1,1,2,2-tetrafluoro-ethoxy)-phenyl]-3-trifluoro-methyl-benzamide], the Ki under setting [1] came out at 0.039 µM. Consider `COc1cccc(NC(=O)c2ccc(N3CCCCCC3)c(C(F)(F)F)c2)c1` [Example 195, 4-Azepan-1-yl-N-(3-methoxy-phenyl)-3-trifluoromethyl-benzamide], for which the Ki under setting [1] stood at 0.011 µM. With `COc1cccc(NC(=O)c2ccc(N3CCC(C#N)CC3)c(C(F)(F)F)c2)c1` [Example 196, 4-(4-Cyano-piperidin-1-yl)-N-(3-methoxy-phenyl)-3-trifluoromethyl-benzamide], the Ki under setting [1] was determined as 0.022 µM. Still for that read-out and setting: with `COc1cccc(NC(=O)c2ccc(N3CCC(C(F)(F)F)CC3)c(C(F)(F)F)c2)c1` [Example 197, N-(3-Methoxy-phenyl)-3-trifluoromethyl-4-(4-trifluoromethyl-piperidin-1-yl)-benzamide] the figure was 0.003 µM. Consider `COc1cccc(NC(=O)c2cnc(NCc3ccccc3)c(C(F)(F)F)c2)c1` [Example 199], for which the Ki (Ki value (μM) in mouse) was determined as 0.0056 µM. As for `COc1cccc(NC(=O)c2cnc(NC(C)C)c(C(F)(F)F)c2)c1` [Example 200], for the setting “Ki value (μM) in mouse”, the Ki stood at 0.0597 µM. On to `COc1cccc(NC(=O)c2cnc(N3CCC(C)CC3)c(C(F)(F)F)c2)c1` [Example 201], for which, under setting [1], the Ki worked out at 0.0017 µM.

Turning to `COc1cccc(NC(=O)c2cnc(N3CCCC3)c(Cl)c2)c1` [Example 205], the Ki under setting [1] was found to be 0.0101 µM. For the compound `COc1cccc(NC(=O)c2cnc(N3CCCCC3)c(Cl)c2)c1` [Example 206], the inhibition constant (Ki) (Ki value (μM) in mouse) was 0.0207 µM. As for `COc1cccc(NC(=O)c2cnc(N3CCC(C)CC3)c(Cl)c2)c1` [Example 207], under setting [1], the Ki came out at 0.0098 µM.

Compound `CCCCNc1ncc(C(=O)Nc2cccc(OC)c2)cc1Cl` [Example 208] showed a Ki (Ki value (μM) in mouse) of 0.0463 µM. In the case of `O=C(Nc1cccc(Cl)c1)c1cnc(N2CCNCC2)c(Cl)c1` [Example 210, 5-Chloro-N-(3-chloro-phenyl)-6-piperazin-1-yl-nicotinamide], the inhibition constant Ki under setting [1] turned out to be 0.0348 µM. Consider `COc1cccc(NC(=O)c2ccc(Cl)c(C(F)(F)F)c2)c1` [Example 216, 4-Chloro-N-(3-methoxy-phenyl)-3-trifluoromethyl-benzamide], for which the Ki under setting [1] stood at 0.0058 µM.

As for `O=C(Nc1ccccc1)c1ccc(Cl)c(Cl)c1` [Example 217, 3,4-Dichloro-N-phenyl-benzamide], the Ki under setting [1] was 0.054 µM. Regarding `O=C(Nc1cccc(Cl)c1)c1ccc(Cl)c(Cl)c1` [Example 218, 3,3′,4-Trichlorobenzanilide], the Ki under setting [1] was found to be 0.06 µM. Take `O=C(Nc1ccccc1)c1ccc([N+](=O)[O-])c(C(F)(F)F)c1` [Example 219, 3-Trifluoromethyl-4-nitro-N-phenyl-benzamide]: under setting [1], the Ki came to 0.067 µM. The same measure, in the same setting: the figure for `Cc1cccc(C(=O)Nc2ccc(Cl)c(Cl)c2)c1` [Example 220, N-(3,4-Dichloro-phenyl)-3-methyl-benzamide] is 0.068 µM. On to `O=C(Nc1cccc(Cl)c1)c1ccc(Cl)c(Cl)c1` [Example 283, 3,4-Dichloro-N-(3-chloro-phenyl)-benzamide], for which the Ki under setting [1] came out at 0.06 µM. Same read-out and setting: the figure for `O=C(Nc1ccccc1)c1ccc(Cl)c(Cl)c1` [Example 319, 3,4-Dichloro-N-phenyl-benzamide] is 0.0543 µM; for `O=C(Nc1ccccc1)c1ccc([N+](=O)[O-])c(C(F)(F)F)c1` [Example 324, 4-Nitro-N-phenyl-3-trifluoromethyl-benzamide] it is 0.0674 µM.
